Results taken from PMC6281186, “Bioinformatics: A rational combine approach used for the identification and in-vitro activity evaluation of potent β-Glucuronidase inhibitors” (PLoS ONE, 2018).

Molecular target: T1, β-glucuronidase enzyme (Escherichia coli, UniProt P05804)
T1 construct: purchased Sigma Aldrich G7396-25KU
Experiment: β-Glucuronidase inhibition assay (spectrophotometric, p-nitrophenyl-β-D-glucuronide)
Assay type: biochemical
Protocol: β-Glucuronidase inhibitory activity was determined with the help of spectrophotometric method by measuring the absorbance at 405 nm of p-nitrophenol formed from the substrate (p-nitrophenyl-β-D-glucuronide, N1627-250 mg, Sigma Aldrich). The total reaction volume was 250 μL. The compound dissolved in DMSO (100%), which becomes 2% in the ultimate assay (250 μL) and the similar conditions were used for standard (D-saccharic acid 1, 4-lactone, Sigma Aldrich). The reaction mixture contained 185 μL of 0.1 M acetate buffer, 5 μL of test compound solution, 10 μL of (1U) enzyme solution (G7396-25KU, Sigma Aldrich) was incubated at 37°C for 30 min. The plates were read on a multiplate reader (SpectraMax plus 384) at 405 nm after the addition of 50 μL of 0.4 mM p-nitrophenyl-β-D-glucuronide. All assays were performed in triplicate. IC50values were calculated by using EZ-Fit software (Perrella Scientific Inc., Amherst, MA, U.S.A.). These values are the mean of three independent readings^ [23]

T1 sequence (P05804 whole entry): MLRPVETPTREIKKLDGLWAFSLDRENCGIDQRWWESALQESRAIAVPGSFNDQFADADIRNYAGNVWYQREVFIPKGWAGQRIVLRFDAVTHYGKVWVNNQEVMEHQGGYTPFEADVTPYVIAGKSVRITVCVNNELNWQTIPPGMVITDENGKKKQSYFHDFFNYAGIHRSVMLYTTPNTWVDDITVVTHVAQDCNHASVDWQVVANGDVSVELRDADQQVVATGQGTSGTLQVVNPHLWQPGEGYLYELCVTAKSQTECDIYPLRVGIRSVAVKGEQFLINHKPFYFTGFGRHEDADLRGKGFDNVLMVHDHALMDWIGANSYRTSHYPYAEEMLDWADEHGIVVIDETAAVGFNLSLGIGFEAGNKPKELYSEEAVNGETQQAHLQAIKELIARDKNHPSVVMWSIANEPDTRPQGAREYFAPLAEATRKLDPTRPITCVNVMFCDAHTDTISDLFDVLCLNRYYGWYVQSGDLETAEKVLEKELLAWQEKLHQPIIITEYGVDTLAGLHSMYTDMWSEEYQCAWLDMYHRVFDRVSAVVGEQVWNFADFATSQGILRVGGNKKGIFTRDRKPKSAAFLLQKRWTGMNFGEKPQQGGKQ

`O=C1OC(C(O)C(=O)O)C(O)C1O` [D-saccharic acid 1,4-lactone] was tested, and the “% Inhibition” value (Conc. 200 μM) was 89.4% and the IC50 (β-glucuronidase inhibition, mean of three readings, read-out: IC50 μM±SEM) was 45.8 ± 2.16 µM.
